Laboratory results published in PMC11768629, “Potential Interaction of Pinocembrin with Drug Transporters and Hepatic Drug-Metabolizing Enzymes” (Pharmaceuticals, 2025).

Columns and labels:
hOAT1-MDCK cells = assay: Cell viability assay (MTT) in hOAT1-MDCK cells; format: cell-based, canine; conditions: tenofovir 5 µM, 48 h
Method: (§1) The hOAT1-MDCK cells and hOAT3-MDCK cells were treated with 1, 10, and 50 μM pinocembrin for 24 h, followed by a measurement of ^3H-PAH and ^3H-estrone sulfate cellular accumulation. […] The inhibitory effect of pinocembrin occurred in a concentration-dependent manner.
(§2) We determined whether the inhibitory effect of pinocembrin on hOAT1 and hOAT3. We studied whether pinocembrin could reduce the renal toxicity of tenofovir, a substrate of hOAT1 and hOAT3 known for inducing renal tubular dysfunction.
(§3) The confluent cells in 96-well plates were treated with pinocembrin for 48 h at 37 °C. After that, the cells were incubated with 0.5 mg/mL MTT solution for four hours. The MTT solution was removed, and DMSO (100 µL) was added to dissolve the crystal formazan. The formazan content was detected at a wavelength of 570 nm using a microplate reader. Cell viability was reported as a percentage of the vehicle-treated cells.

hOAT3-MDCK cells = assay: Cell viability assay (MTT) in hOAT3-MDCK cells; format: cell-based, canine; conditions: tenofovir 5 µM, 48 h
Method: as §1, §2, §3

C[C@H](Cn1cnc2c(N)ncnc21)OCP(=O)(O)O [tenofovir]
cell viability (hOAT1-MDCK cells): significantly reduced the cell viability
cell viability (hOAT3-MDCK cells): did not affect the viability
